Laboratory results: US8846746B2, “Pyrazole compound and pharmaceutical use thereof” (Japan Tobacco Inc., priority 2011, dated 2014)

These compounds were tested against human SGLT1 (Homo sapiens (Human), UniProt P13866) (assay: SGLT1 inhibitory activity: 14C-AMG uptake into CHO-K1 cell line stably expressing human SGLT1). Settings: 14C-AMG uptake, CHO-K1 cells expressing human SGLT1.
Format: cell-based
In short: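 Human SGLT1 was stably expressed in CHO-K1 cells. Cells were first held 20 min in sodium-free buffer, then exposed to compound in Na(+)/BSA buffer with tracer and AMG (2 mM in the added solution).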

Sequence of human SGLT1 (P13866 whole entry): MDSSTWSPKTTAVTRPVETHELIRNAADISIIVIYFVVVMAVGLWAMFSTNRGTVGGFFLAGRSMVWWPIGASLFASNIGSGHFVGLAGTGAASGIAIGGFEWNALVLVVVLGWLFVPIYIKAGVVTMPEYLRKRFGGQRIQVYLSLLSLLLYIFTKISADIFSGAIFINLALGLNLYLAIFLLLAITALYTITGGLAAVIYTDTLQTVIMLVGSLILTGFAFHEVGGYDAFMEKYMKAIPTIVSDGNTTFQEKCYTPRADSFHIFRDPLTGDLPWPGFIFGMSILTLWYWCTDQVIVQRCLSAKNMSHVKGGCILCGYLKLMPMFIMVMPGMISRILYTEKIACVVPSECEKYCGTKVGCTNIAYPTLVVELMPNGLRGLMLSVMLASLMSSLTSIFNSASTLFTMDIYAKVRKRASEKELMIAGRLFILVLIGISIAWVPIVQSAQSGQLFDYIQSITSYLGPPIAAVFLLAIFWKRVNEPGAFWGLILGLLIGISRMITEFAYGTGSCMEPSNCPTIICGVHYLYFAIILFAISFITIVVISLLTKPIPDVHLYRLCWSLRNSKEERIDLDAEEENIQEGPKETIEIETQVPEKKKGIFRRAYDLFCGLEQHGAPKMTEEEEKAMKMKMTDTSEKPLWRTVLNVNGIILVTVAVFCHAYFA

Compound | IC50 [nM]
C[C@H]1C(=O)NC[C@@H]1C(=O)Nc1cc(-c2cccc(C(F)(F)F)c2)n(-c2ccc(F)cc2)n1 [Example 202] | 12
C[C@H]1C(=O)NC[C@@H]1C(=O)Nc1cc(-c2cccc(C(F)(F)F)c2)n(-c2ccccc2Cl)n1 [Example 203] | 1.4
O=C1C[C@@H](C(=O)Nc2cc(-c3cccc(C(F)(F)F)c3)n(-c3ccc(F)cc3)n2)CN1 [Example 204] | 18
O=C1C[C@@H](C(=O)Nc2cc(-c3cccc(C(F)(F)F)c3)n(-c3ccccc3Cl)n2)CN1 [Example 205] | 3.6
O=C1C[C@@H](C(=O)Nc2cc(-c3cccc(OCC(F)(F)F)c3)n(-c3cccc(F)c3)n2)CN1 [Example 206] | 4.8
C[C@H]1C(=O)NC[C@@H]1C(=O)Nc1cc(-c2cccc(C(F)(F)F)c2)n(-c2ccccc2)n1 [Example 207] | 4.7
CCC(F)(F)c1cccc(-c2cc(NC(=O)[C@H]3CNC(=O)[C@@H]3C)nn2-c2ccccc2Cl)c1 [Example 208] | 1.3
C[C@H]1C(=O)NC[C@@H]1C(=O)Nc1cc(-c2cccc(C(F)(F)F)c2)n(-c2cccc(F)c2)n1 [Example 209] | 9.2
C[C@H]1C(=O)NC[C@@H]1C(=O)Nc1cc(-c2cccc(OCC(F)(F)F)c2)n(-c2ccccc2)n1 [Example 210] | 5.9
O=C1C[C@@H](C(=O)Nc2cc(-c3cccc(OCC(F)(F)F)c3)n(-c3ccc(F)cc3)n2)CN1 [Example 211] | 17
C[C@H]1C(=O)NC[C@@H]1C(=O)Nc1cc(-c2cccc(OCC(F)(F)F)c2)n(-c2ccc(F)cc2)n1 [Example 212] | 5.8
O=C1C[C@@H](C(=O)Nc2cc(-c3cccc(C(F)(F)F)c3)n(-c3cccc(F)c3)n2)CN1 [Example 213] | 14
O=C1C[C@@H](C(=O)Nc2cc(-c3cccc(OCC(F)(F)F)c3)n(-c3ccccc3Cl)n2)CN1 [Example 214] | 2.3
C[C@H]1C(=O)NC[C@@H]1C(=O)Nc1cc(-c2cccc(OCC(F)(F)F)c2)n(-c2ccccc2Cl)n1 [Example 215] | 1.4
Cc1ccc(-n2nc(NC(=O)[C@H]3CNC(=O)C3)cc2-c2cccc(OCC(F)(F)F)c2)cc1 [Example 216] | 8.7
Cc1ccc(-n2nc(NC(=O)[C@H]3CNC(=O)[C@@H]3C)cc2-c2cccc(OCC(F)(F)F)c2)cc1 [Example 217] | 6.2
C[C@H]1C(=O)NC[C@@H]1C(=O)Nc1cc(-c2cccc(OCC(F)(F)F)c2)n(-c2cccc(F)c2)n1 [Example 222] | 4.1
Cc1ccccc1-n1nc(NC(=O)[C@H]2CNC(=O)[C@@H]2C)cc1-c1cccc(OC(F)(F)F)c1 [Example 223] | 2.3
Cc1ccccc1-n1nc(NC(=O)[C@H]2CNC(=O)C2)cc1-c1cccc(C(F)(F)F)c1 [Example 224] | 6.3
Cc1ccccc1-n1nc(NC(=O)[C@H]2CNC(=O)[C@@H]2C)cc1-c1cccc(C(F)(F)F)c1 [Example 225] | 3.9
Cc1ccccc1-n1nc(NC(=O)[C@H]2CNC(=O)C2)cc1-c1cccc(OCC(F)(F)F)c1 [Example 226] | 3.3
Cc1ccccc1-n1nc(NC(=O)[C@H]2CNC(=O)[C@@H]2C)cc1-c1cccc(OCC(F)(F)F)c1 [Example 227] | 2.1
O=C1C[C@@H](C(=O)Nc2cc(-c3cccc(C(F)(F)F)c3)n(-c3ccccc3F)n2)CN1 [Example 228] | 8.6

Same assay, conditions: CHO-K1, at 0.1 uM

Compound | inhibition at 0.1 µM [%]
C[C@@H]1C[C@@H](n2nc(NC(=O)[C@H]3CNC(=O)C3)cc2-c2cccc(OC(F)(F)F)c2)C[C@H](C)O1 [Example 218] | 26
C[C@@H]1C[C@H](n2nc(NC(=O)[C@H]3CNC(=O)C3)cc2-c2cccc(OC(F)(F)F)c2)C[C@H](C)O1 [Example 219] | 20
C[C@@H]1C[C@@H](n2nc(NC(=O)[C@H]3CNC(=O)[C@@H]3C)cc2-c2cccc(OC(F)(F)F)c2)C[C@H](C)O1 [Example 220] | 16
C[C@@H]1C[C@H](n2nc(NC(=O)[C@H]3CNC(=O)[C@@H]3C)cc2-c2cccc(OC(F)(F)F)c2)C[C@H](C)O1 [Example 221] | 15
